Earlier results as cited in patent publication US5013756A, “Catechol derivatives, a process of preparation thereof, and therapeutical compositions containing the same” (priority 1985, dated 1991).

Tested on: guinea pig ileum
Details: histamine relative to LTC 4, molar basis; cited from earlier work

## NCCc1c[nH]cn1 [histamine]
  times less active than LTC 4 on a molar basis: 200 times
